The values below come from patent US20250145665A1, “MACROCYCLIC PEPTIDES USEFUL AS MODULATORS OF TNF ALPHA” (Bristol-Myers Squibb Company, priority 2023, published 2025).

For orientation: IC50 means the concentration needed to halve the response being measured.

Starred links: 1 amine or outer side, 2 acyl side, 3 side chain; linkers in the order of their positions; H or OH if unused. Positions of bridges follow the written chain, without caps; N, C: chain ends. Non-standard residues stand in square brackets, D forms with d. Residues, ends and D or L forms follow the SMILES beside them. *: point of attachment. Bip(4'-(3-HOOC-benzamido)) = N[C@@H](Cc1ccc(-c2ccc(NC(=O)c3cccc(C(=O)O)c3)cc2)cc1)C(=O)O; Bip(4'-NHBz) = N[C@@H](Cc1ccc(-c2ccc(NC(=O)c3ccccc3)cc2)cc1)C(=O)O; Bip(4'-NH) = O=C([C@H](Cc1ccc(-c2ccc(N[*:3])cc2)cc1)N[*:1])[*:2]; Bip(4'-CONHMe) = CNC(=O)c1ccc(-c2ccc(C[C@H](N)C(=O)O)cc2)cc1; Bip(4'-COOH) = N[C@@H](Cc1ccc(-c2ccc(C(=O)O)cc2)cc1)C(=O)O; Bip(4'-NHAc) = CC(=O)Nc1ccc(-c2ccc(C[C@H](N)C(=O)O)cc2)cc1; X42 = O=C(O)Cn1cc(C[C@H](NC(=O)c2ccccc2)C(=O)*)c2ccccc21; X11 = CC(=O)N[C@@H](Cc1cn(CC(=O)O)c2ccccc12)C(=O)*; Ala(morpholin-4-yl) = N[C@@H](CN1CCOCC1)C(=O)O; Benzoyl(3-OCH2COOH) = O=C(O)COc1cccc(C(=O)*)c1; Phe(3-CONH2) = NC(=O)c1cccc(C[C@H](N)C(=O)O)c1; Bip = N[C@@H](Cc1ccc(-c2ccccc2)cc1)C(=O)O; X67 = O=C(O)c1ccc(-c2cccc(C(=O)*)c2)cc1; Tiq1c(1S) = O=C(O)[C@H]1NCCc2ccccc21; X75 = O=C(O)Cn1ccc2c(C(=O)*)cccc21; 2Pal = N[C@@H](Cc1ccccn1)C(=O)O; Tic = O=C(O)[C@@H]1Cc2ccccc2CN1; Cha = N[C@@H](CC1CCCCC1)C(=O)O; Tle = CC(C)(C)[C@H](N)C(=O)O; Aze = O=C(O)[C@@H]1CCN1; Sar = CNCC(=O)O

One experiment deals with TNFα (Homo sapiens, UniProt P01375). As to the kind of experiment: TNF-Induced HEK-Blue Assay. Format: cell-based.
Sequence of TNFα (P01375 77-233 limits assumed): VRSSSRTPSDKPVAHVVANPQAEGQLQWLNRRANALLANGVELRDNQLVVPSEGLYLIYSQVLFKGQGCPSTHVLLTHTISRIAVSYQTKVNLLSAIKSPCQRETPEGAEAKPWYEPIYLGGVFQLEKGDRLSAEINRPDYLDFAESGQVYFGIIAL
Conditions: not given
`CC[C@H](C)[C@@H]1NC(=O)[C@@H](CCCNC(=N)N)NC(=O)[C@H](CC(=O)O)NC(=O)[C@H](Cc2cnc[nH]2)NC(=O)CN(C)C(=O)[C@H](Cc2ccc(-c3ccc(NC(=O)c4ccccc4)cc3)cc2)NC(=O)[C@H](Cc2ccc(-c3ccc(C(=O)O)cc3)cc2)NC(=O)[C@H](CC2CCCCC2)NC(=O)CSC[C@@H](C(=O)NCC(N)=O)NC(=O)[C@H](CC(C)C)NC(=O)[C@H](Cc2cnc[nH]2)NC(=O)[C@H](C(C)C)NC(=O)[C@@H]2c3ccccc3CCN2C1=O` [Example 373] ({CH2CO}-[Cha][Bip(4'-COOH)][Bip(4'-NHBz)][Sar]HD[dR]I[Tiq1c(1S)]VHLCG-NH2; thioether N-13) yielded a half-inhibitory concentration (IC50) of under 50 nM. The compound `CC[C@H](C)[C@@H]1NC(=O)[C@@H](CCCNC(=N)N)NC(=O)[C@H](CC(=O)O)NC(=O)[C@H](Cc2cnc[nH]2)NC(=O)CN(C)C(=O)[C@H](Cc2ccc(-c3ccc(NC(=O)c4cccc(OCC(=O)O)c4)cc3)cc2)NC(=O)[C@H](Cc2ccc(-c3ccc(C(=O)O)cc3)cc2)NC(=O)[C@H](CC2CCCCC2)NC(=O)CSC[C@@H](C(=O)NCC(N)=O)NC(=O)[C@H](CC(C)C)NC(=O)[C@H](Cc2cnc[nH]2)NC(=O)[C@H](C(C)C)NC(=O)[C@@H]2c3ccccc3CCN2C1=O` [Example 375] ({CH2CO}-[Cha][Bip(4'-COOH)][Bip(4'-NH)](Benzoyl(3-OCH2COOH))[Sar]HD[dR]I[Tiq1c(1S)]VHLCG-NH2; thioether N-13) showed an IC50 of under 50 nM. Regarding `CC[C@H](C)[C@@H]1NC(=O)[C@@H]2CCN2C(=O)[C@H]([C@@H](C)CC)NC(=O)[C@@H](CCCNC(=N)N)NC(=O)[C@H](CC(=O)O)NC(=O)[C@H](Cc2ccc(O)cc2)NC(=O)CN(C)C(=O)[C@H](Cc2ccc(-c3ccc(NC(=O)c4ccccc4)cc3)cc2)NC(=O)[C@H](Cc2ccc(-c3ccccc3)cc2)NC(=O)[C@H](C(C)(C)C)NC(=O)CSC[C@@H](C(=O)NCC(N)=O)NC(=O)[C@H](CC(C)C)NC(=O)[C@H](Cc2ccc(O)cc2)NC1=O` [Example 376] ({CH2CO}-[Tle][Bip][Bip(4'-NHBz)][Sar]YD[dR]I[Aze]IYLCG-NH2; thioether N-13), the IC50 was 50 to 200 nM. Same read-out and setting: to `CC[C@H](C)[C@@H]1NC(=O)[C@@H]2CCCN2C(=O)[C@H]([C@@H](C)CC)NC(=O)[C@@H](CCCNC(=N)N)NC(=O)[C@H](CC(=O)O)NC(=O)[C@H](Cc2ccccn2)NC(=O)CN(C)C(=O)[C@H](Cc2ccc(-c3ccc(NC(=O)[C@H](Cc4cn(CC(=O)O)c5ccccc45)NC(=O)c4ccccc4)cc3)cc2)NC(=O)[C@H](Cc2ccc(-c3ccccc3)cc2)NC(=O)[C@H](C(C)(C)C)NC(=O)CSC[C@@H](C(=O)NCC(N)=O)NC(=O)[C@H](CC(C)C)NC(=O)[C@H](Cc2cccc(C(N)=O)c2)NC1=O` [Example 380] ({CH2CO}-[Tle][Bip][Bip(4'-NH)](X42)[Sar][2Pal]D[dR]IPI[Phe(3-CONH2)]LCG-NH2; thioether N-13) belongs 50 to 200 nM; to `CC(C)C[C@@H]1NC(=O)[C@H](Cc2ccc(O)cc2)NC(=O)[C@H](C(C)C)NC(=O)[C@@H]2Cc3ccccc3CN2C(=O)[C@H](C(C)C)NC(=O)[C@@H](CCCNC(=N)N)NC(=O)[C@H](CC(=O)O)NC(=O)[C@@H]2CCCN2C(=O)CN(C)C(=O)[C@H](Cc2ccc(-c3ccc(NC(=O)c4ccccc4)cc3)cc2)NC(=O)[C@H](Cc2ccc(-c3ccc(C(=O)O)cc3)cc2)NC(=O)[C@H](CC2CCCCC2)NC(=O)CSC[C@@H](C(=O)NCC(N)=O)NC1=O` [Example 383] ({CH2CO}-[Cha][Bip(4'-COOH)][Bip(4'-NHBz)][Sar]PD[dR]V[Tic]VYLCG-NH2; thioether N-13), 50 to 200 nM.

Staying with this experiment, now noted: HEK-Blue-CD40L cells, NF-kB-driven secreted alkaline phosphatase reporter; TNFα 0.5 ng/ml; 18 h; read-out: TNF induced HEK-Blue assay IC50 value.
For the compound `CC[C@H](C)[C@@H]1NC(=O)[C@@H](CCCNC(=N)N)NC(=O)[C@H](CC(=O)O)NC(=O)[C@H](Cc2cnc[nH]2)NC(=O)CN(C)C(=O)[C@H](Cc2ccc(-c3ccc(NC(=O)c4cccc(OCC(=O)O)c4)cc3)cc2)NC(=O)[C@H](Cc2ccc(-c3ccc(C(=O)O)cc3)cc2)NC(=O)[C@H](CC2CCCCC2)NC(=O)CSC[C@@H](C(=O)NCC(N)=O)NC(=O)[C@H](CC(C)C)NC(=O)[C@H](Cc2cnc[nH]2)NC(=O)[C@H](C(C)C)NC(=O)[C@@H]2Cc3ccccc3CN2C1=O` [Example 372] ({CH2CO}-[Cha][Bip(4'-COOH)][Bip(4'-NH)](Benzoyl(3-OCH2COOH))[Sar]HD[dR]I[Tic]VHLCG-NH2; thioether N-13), the concentration for half-maximal inhibition (IC50) was under 50 nM.

`CC[C@H](C)[C@@H]1NC(=O)[C@@H](CCCNC(=N)N)NC(=O)[C@H](CC(=O)O)NC(=O)[C@H](Cc2cnc[nH]2)NC(=O)CN(C)C(=O)[C@H](Cc2ccc(-c3ccc(NC(=O)c4cccc(C(=O)O)c4)cc3)cc2)NC(=O)[C@H](Cc2ccc(-c3ccc(C(=O)O)cc3)cc2)NC(=O)[C@H](CC2CCCCC2)NC(=O)CSC[C@@H](C(=O)NCC(N)=O)NC(=O)[C@H](CC(C)C)NC(=O)[C@H](Cc2cnc[nH]2)NC(=O)[C@H](C(C)C)NC(=O)[C@@H]2c3ccccc3CCN2C1=O` [Example 374] ({CH2CO}-[Cha][Bip(4'-COOH)][Bip(4'-(3-HOOC-benzamido))][Sar]HD[dR]I[Tiq1c(1S)]VHLCG-NH2; thioether N-13): the half-inhibitory concentration (IC50) is under 50 nM.

Consider `CC[C@H](C)[C@@H]1NC(=O)[C@@H]2CCN2C(=O)[C@H]([C@@H](C)CC)NC(=O)[C@@H](CCCNC(=N)N)NC(=O)[C@H](CC(=O)O)NC(=O)[C@H](Cc2ccc(O)cc2)NC(=O)CN(C)C(=O)[C@H](Cc2ccc(-c3ccc(NC(=O)c4cccc(C(=O)O)c4)cc3)cc2)NC(=O)[C@H](Cc2ccc(-c3ccccc3)cc2)NC(=O)[C@H](C(C)(C)C)NC(=O)CSC[C@@H](C(=O)NCC(N)=O)NC(=O)[C@H](CC(C)C)NC(=O)[C@H](Cc2ccc(O)cc2)NC1=O` [Example 377] ({CH2CO}-[Tle][Bip][Bip(4'-(3-HOOC-benzamido))][Sar]YD[dR]I[Aze]IYLCG-NH2; thioether N-13), for which the IC50 was 50 to 200 nM. Same read-out and setting: to `CC[C@H](C)[C@@H]1NC(=O)[C@@H]2CCN2C(=O)[C@H]([C@@H](C)CC)NC(=O)[C@@H](CCCNC(=N)N)NC(=O)[C@H](CC(=O)O)NC(=O)[C@H](Cc2ccc(O)cc2)NC(=O)CN(C)C(=O)[C@H](Cc2ccc(-c3ccc(NC(=O)c4cccc(OCC(=O)O)c4)cc3)cc2)NC(=O)[C@H](Cc2ccc(-c3ccccc3)cc2)NC(=O)[C@H](C(C)(C)C)NC(=O)CSC[C@@H](C(=O)NCC(N)=O)NC(=O)[C@H](CC(C)C)NC(=O)[C@H](Cc2ccc(O)cc2)NC1=O` [Example 378] ({CH2CO}-[Tle][Bip][Bip(4'-NH)](Benzoyl(3-OCH2COOH))[Sar]YD[dR]I[Aze]IYLCG-NH2; thioether N-13) belongs under 50 nM; to `CC[C@H](C)[C@@H]1NC(=O)[C@@H]2CCCN2C(=O)[C@H]([C@@H](C)CC)NC(=O)[C@@H](CCCNC(=N)N)NC(=O)[C@H](CC(=O)O)NC(=O)[C@H](Cc2ccccn2)NC(=O)CN(C)C(=O)[C@H](Cc2ccc(-c3ccc(NC(=O)[C@H](Cc4cn(CC(=O)O)c5ccccc45)NC(C)=O)cc3)cc2)NC(=O)[C@H](Cc2ccc(-c3ccccc3)cc2)NC(=O)[C@H](C(C)(C)C)NC(=O)CSC[C@@H](C(=O)NCC(N)=O)NC(=O)[C@H](CC(C)C)NC(=O)[C@H](Cc2cccc(C(N)=O)c2)NC1=O` [Example 379] ({CH2CO}-[Tle][Bip][Bip(4'-NH)](X11)[Sar][2Pal]D[dR]IPI[Phe(3-CONH2)]LCG-NH2; thioether N-13), 50 to 200 nM.

In the case of `CC(C)C[C@@H]1NC(=O)[C@H](Cc2ccc(O)cc2)NC(=O)[C@H](C(C)C)NC(=O)[C@@H]2Cc3ccccc3CN2C(=O)[C@H](C(C)C)NC(=O)[C@@H](CCCNC(=N)N)NC(=O)[C@H](CC(=O)O)NC(=O)[C@@H]2CCCN2C(=O)CN(C)C(=O)[C@H](Cc2ccc(-c3ccc(NC(=O)c4cccc(-c5ccc(C(=O)O)cc5)c4)cc3)cc2)NC(=O)[C@H](Cc2ccc(-c3ccc(C(=O)O)cc3)cc2)NC(=O)[C@H](CC2CCCCC2)NC(=O)CSC[C@@H](C(=O)NCC(N)=O)NC1=O` [Example 381] ({CH2CO}-[Cha][Bip(4'-COOH)][Bip(4'-NH)](X67)[Sar]PD[dR]V[Tic]VYLCG-NH2; thioether N-13), the IC50 was 50 to 200 nM. On the same count and under the same terms, as for `CC(C)C[C@@H]1NC(=O)[C@H](CCCNC(=N)N)NC(=O)[C@H](C(C)C)NC(=O)[C@@H]2CCCN2C(=O)[C@H](C(C)C)NC(=O)[C@@H](CCCNC(=N)N)NC(=O)[C@H](CC(=O)O)NC(=O)[C@@H]2CCCN2C(=O)CN(C)C(=O)[C@H](Cc2ccc(-c3ccc(NC(=O)c4cccc5c4ccn5CC(=O)O)cc3)cc2)NC(=O)[C@H](Cc2ccc(-c3ccccc3)cc2)NC(=O)[C@H](CN2CCOCC2)NC(=O)CSC[C@@H](C(=O)NCC(N)=O)NC1=O` [Example 382] ({CH2CO}-[Ala(morpholin-4-yl)][Bip][Bip(4'-NH)](X75)[Sar]PD[dR]VPVRLCG-NH2; thioether N-13), the figure is under 50 nM; as for `CC(C)C[C@@H]1NC(=O)[C@H](Cc2ccc(O)cc2)NC(=O)[C@H](C(C)C)NC(=O)[C@@H]2Cc3ccccc3CN2C(=O)[C@H](C(C)C)NC(=O)[C@@H](CCCNC(=N)N)NC(=O)[C@H](CC(=O)O)NC(=O)[C@@H]2CCCN2C(=O)CN(C)C(=O)[C@H](Cc2ccc(-c3ccc(NC(=O)c4cccc(C(=O)O)c4)cc3)cc2)NC(=O)[C@H](Cc2ccc(-c3ccc(C(=O)O)cc3)cc2)NC(=O)[C@H](CC2CCCCC2)NC(=O)CSC[C@@H](C(=O)NCC(N)=O)NC1=O` [Example 384] ({CH2CO}-[Cha][Bip(4'-COOH)][Bip(4'-(3-HOOC-benzamido))][Sar]PD[dR]V[Tic]VYLCG-NH2; thioether N-13), 50 to 200 nM; as for `CC[C@H](C)[C@@H]1NC(=O)[C@@H]2CCCN2C(=O)[C@H]([C@@H](C)CC)NC(=O)[C@@H](CCCNC(=N)N)NC(=O)[C@H](CC(=O)O)NC(=O)[C@H](Cc2ccccc2)NC(=O)CN(C)C(=O)[C@H](Cc2ccc(-c3ccc(NC(C)=O)cc3)cc2)NC(=O)[C@H](Cc2ccc(-c3ccc(C(=O)NC)cc3)cc2)NC(=O)[C@H](C(C)(C)C)NC(=O)CSC[C@@H](C(=O)NCC(N)=O)NC(=O)[C@H](CC(C)C)NC(=O)[C@H](Cc2cnc[nH]2)NC1=O` [Example 385] ({CH2CO}-[Tle][Bip(4'-CONHMe)][Bip(4'-NHAc)][Sar]FD[dR]IPIHLCG-NH2; thioether N-13), under 50 nM.
